In brackets after ≈: the same amount, converted by molar mass. Where two headings read alike, the source gives them in different places.
Tests used:
[1] = test system: 5 major human cytochrome P450 isoforms (CYPs); assay: Inhibition of cytochrome P450 isoforms in vitro; type: in vitro ADME
Enterobacteriaceae (EN) = assay: MIC, broth microdilution, Brooklyn hospital isolates: Enterobacteriaceae subsets (amikacin-resistant, KPC+); type: cell-based
Experimental: In another study, the activity of Compound 1 against a collection of contemporary Gram-negative bacteria was determined. Unique patient isolates of P. aeruginosa (PA), A. baumannii (AB), K. pneumoniae (KP), E. coli (EC), and Enterobacter spp. (EB) from prior surveys at 16 Brooklyn, N.Y. hospitals were selected based on resistance patterns. The majority of isolates were fingerprinted by automated ribotyping. MICs were performed by broth microdilution. PCR was used to identify aminoglycoside-modifying enzymes (AMEs) in AB and KP and the KPC gene in Enterobacteriaceae (EN). The expression of the efflux genes mexA, C, E and X in PA, and adeB in AB was assessed by real-time RT-PCR.

[2] = test system: glomerular filtration rate; assay: First-in-human phase 1 study: renal function (BUN, Cr, iothalamate GFR); type: in vivo; settings: healthy volunteers
Experimental: Safety evaluation was based on clinical observations, vital sign measurements, laboratory tests, physical examination, electrocardiogram, cochlear function, vestibular function testing, and reported adverse events. Cochlear function was evaluated by pure tone audiometry with bone conduction and otoacoustic emission (OAE) testing. Vestibular function was evaluated by electronystagmography (ENG) and Dynamic Visual Acuity (DVA) test. Laboratory tests included complete blood count (CBC), serum chemistries, and urinalysis. BUN and creatinine (Cr) were assessed daily on dosing days to allow the Investigator to monitor renal function. Results were used as criteria for dose escalation. The glomerular filtration rate (GFR) was estimated using iothalamate plasma measurements before dosing and after the multiple dose periods. GFR was also assessed by Cr clearance before dosing and after the multiple dose periods.
Iothalamate was infused the day prior to the single-dose and prior to the first multiple-dose and the day after the last multiple-dose. Blood samples for iothalamate analysis for GFR calculation were obtained prior to the start of the iothalamate infusion and the following hours after the start of the infusion: 1, 2, 4, and 8.

[3] = First-in-human phase 1 study: plasma pharmacokinetics of Compound 1; type: in vivo; settings: for AUC(0-inf) / Cmax / clearance / half-life: both sexes, human, plasma, intravenous, human plasma, single dose
Source text: The initial, first-in-human (FIH) phase 1 study was a double-blind, randomized, placebo-controlled, parallel-group, single- and multiple-dose-escalation study to assess the safety, tolerability, and pharmacokinetics of Compound 1 administered IV to healthy adult volunteers. In addition, the design of this FIH phase 1 study provided rationale and support for dosing for the proposed phase 2 study in patients with cUTI (see FIG. 11).
This study was designed with four escalating dose arms in both single-dose and multiple-dose phases. Compound 1 was formulated as a sterile solution at a concentration of 50 mg/mL in 10 mL glass vials for intravenous (IV) administration (“Compound 1 Injection”). To support high-dose, short-course therapy, the FIH phase 1 study investigated escalating doses with shorter durations at the higher dosages. At least 32 male and female healthy subjects (8 per Cohort) were randomized to receive a single dose of either Compound 1 Injection or placebo administered IV by 10 minute infusion in a double-blinded manner, as shown below:
Cohort 1a: 1 mg/kg Single Dose (SD) only
Cohort 1b: 4 mg/kg SD and Multiple Doses (MD) for 10 days
Cohort 2: 7 mg/kg SD and MD for 10 days
Cohort 3: 11 mg/kg SD and MD for 5 days
Cohort 4: 15 mg/kg SD and MD for 3 days
Blood and urine samples for safety laboratory tests were obtained during the screen period, before and after the single-dose, before and after the multiple-dose (additional samples were obtained during multiple-dose period depending on MD duration). Blood samples for PK analysis were obtained with the single dose and first and last multiple-doses at the following times:
5, 10, 15, 20, 30, 45, 60 minutes after the start of the infusion; and
1, 1.5, 2, 2.5 (Cohorts 3 and 4 only), 3, 4, 6, 8, 12, 16, 24, and 48 hours after the start of the infusion.
For subjects in the 10-day multiple-dose cohorts, additional blood samples for PK analysis were obtained predose on days 11, 13, and 15.

[4] = 1 mg/kg, 24 hours, Cohort 1 a (1 mg/kg), compartmental (2) analysis, ± SE
[5] = 1 mg/kg, 48 hours, Cohort 1a (1 mg/kg), noncompartmental analysis, ± SD
[6] = 4 mg/kg, 24 hours, Cohort 1b (4 mg/kg), compartmental (2) analysis, ± SE
[7] = 4 mg/kg, 48 hours, Cohort 1b (4 mg/kg), noncompartmental analysis, ± SD
[8] = 7 mg/kg, 24 hours, Cohort 2 (7 mg/kg), compartmental (2) analysis, ± SE
[9] = 7 mg/kg, 48 hours, Cohort 2 (7 mg/kg), noncompartmental analysis, ± SD
[10] = 11 mg/kg, 24 hours, Cohort 3 (11 mg/kg), compartmental (2) analysis, ± SE
[11] = 11 mg/kg, 48 hours, Cohort 3 (11 mg/kg), noncompartmental analysis, ± SD
[12] = 15 mg/kg, 24 hours, Cohort 4 (15 mg/kg), compartmental (2) analysis, ± SE
[13] = 15 mg/kg, 48 hours, Cohort 4 (15 mg/kg), noncompartmental analysis, ± SD
[14] = healthy volunteers, 1-15 mg/kg IV 10 minute infusion

CN[C@@H]1[C@@H](O)[C@@H](O[C@@H]2[C@@H](O)[C@H](O[C@H]3OC(CNCCO)=CC[C@H]3N)[C@@H](N)C[C@H]2NC(=O)[C@@H](O)CCN)OC[C@]1(C)O [Compound 1, 6′-(2-Hydroxy-ethyl)-1-(4-amino-2(S)-hydroxy-butyryl)-sisomicin]
inhibition of the 5 major human CYPs [1]: did not inhibit
MIC50 (Enterobacteriaceae (EN)): 0.5 µg/mL (≈ 0.844 µM)
MIC90 (Enterobacteriaceae (EN); Amikacin-Resistant-EN (n = 35)): 2 µg/mL (≈ 3.37 µM)
MIC50 (Enterobacteriaceae (EN); KPC +− EN (n = 24)): 0.5 µg/mL (≈ 0.844 µM)
MIC90 (Enterobacteriaceae (EN); KPC +− EN (n = 24)): 4 µg/mL (≈ 6.75 µM)
iothalamate plasma measurements (GFR) [2]: did not change
accumulation over three days ([3]; Cohort 4, 15 mg/kg every 24 hours for three days): very little, in any, accumulation
AUC(0-inf) [3, 4]: 15000 ± 1000 ng·h/mL
Cmax [3, 4]: 8000 ± 800 ng/mL
clearance [3, 4]: 1.13 mL/min/kg
half-life ([3]; 1 mg/kg, 24 hours, Cohort 1 a (1 mg/kg), compartmental (2) analysis, ± SE, read-out: t1/2 alpha (converted)): 0.5 ± 0.1 h
half-life ([3]; 1 mg/kg, 24 hours, Cohort 1 a (1 mg/kg), compartmental (2) analysis, ± SE, read-out: t1/2 beta (converted)): 3.5 ± 0.2 h
AUC(0-inf) ([3]; 1 mg/kg, 48 hours, Cohort 1a (1 mg/kg)): 14000 ± 1000 ng·h/mL
Cmax [3, 5]: 7000 ± 700 ng/mL
clearance [3, 5]: 1.23 mL/min/kg
AUC(0-inf) [3, 6]: 65000 ± 4000 ng·h/mL
Cmax [3, 6]: 38000 ± 4000 ng/mL
clearance [3, 6]: 1.03 mL/min/kg
half-life ([3]; 4 mg/kg, 24 hours, Cohort 1b (4 mg/kg), compartmental (2) analysis, ± SE, read-out: t1/2 alpha (converted)): 0.3 ± 0.1 h
half-life ([3]; 4 mg/kg, 24 hours, Cohort 1b (4 mg/kg), compartmental (2) analysis, ± SE, read-out: t1/2 beta (converted)): 3 ± 0.1 h
AUC(0-inf) ([3]; 4 mg/kg, 48 hours, Cohort 1b (4 mg/kg)): 61000 ± 8000 ng·h/mL
Cmax [3, 7]: 32000 ± 5000 ng/mL
clearance [3, 7]: 1.12 mL/min/kg
AUC(0-inf) [3, 8]: 89000 ± 4000 ng·h/mL
Cmax [3, 8]: 40000 ± 3000 ng/mL
clearance [3, 8]: 1.3 mL/min/kg
half-life ([3]; 7 mg/kg, 24 hours, Cohort 2 (7 mg/kg), compartmental (2) analysis, ± SE, read-out: t1/2 alpha (converted)): 0.7 ± 0.1 h
half-life ([3]; 7 mg/kg, 24 hours, Cohort 2 (7 mg/kg), compartmental (2) analysis, ± SE, read-out: t1/2 beta (converted)): 3.1 ± 0.1 h
AUC(0-inf) ([3]; 7 mg/kg, 48 hours, Cohort 2 (7 mg/kg)): 88000 ± 12000 ng·h/mL
Cmax [3, 9]: 46000 ± 7000 ng/mL
clearance [3, 9]: 1.35 mL/min/kg
AUC(0-inf) [3, 10]: 186000 ± 8000 ng·h/mL
Cmax [3, 10]: 106000 ± 10000 ng/mL
clearance [3, 10]: 0.983 mL/min/kg
half-life ([3]; 11 mg/kg, 24 hours, Cohort 3 (11 mg/kg), compartmental (2) analysis, ± SE, read-out: t1/2 alpha (converted)): 0.3 ± 0.1 h
half-life ([3]; 11 mg/kg, 24 hours, Cohort 3 (11 mg/kg), compartmental (2) analysis, ± SE, read-out: t1/2 beta (converted)): 3.1 ± 0.1 h
AUC(0-inf) ([3]; 11 mg/kg, 48 hours, Cohort 3 (11 mg/kg)): 176000 ± 34000 ng·h/mL
Cmax [3, 11]: 114000 ± 27000 ng/mL
clearance [3, 11]: 1.08 mL/min/kg
AUC(0-inf) [3, 12]: 250000 ± 9000 ng·h/mL
Cmax [3, 12]: 116000 ± 8000 ng/mL
clearance [3, 12]: 1 mL/min/kg
half-life ([3]; 15 mg/kg, 24 hours, Cohort 4 (15 mg/kg), compartmental (2) analysis, ± SE, read-out: t1/2 alpha (converted)): 0.8 ± 0.1 h
half-life ([3]; 15 mg/kg, 24 hours, Cohort 4 (15 mg/kg), compartmental (2) analysis, ± SE, read-out: t1/2 beta (converted)): 3.1 ± 0.2 h
AUC(0-inf) ([3]; 15 mg/kg, 48 hours, Cohort 4 (15 mg/kg)): 242000 ± 37000 ng·h/mL
half-life ([3]; 15 mg/kg, 48 hours, Cohort 4 (15 mg/kg), compartmental (2) analysis, read-out: t½ alpha (converted)): 3 h
half-life ([3]; 15 mg/kg, 48 hours, Cohort 4 (15 mg/kg), compartmental (2) analysis, read-out: t½ beta (converted)): 15 h
Cmax [3, 13]: 144000 ± 45000 ng/mL
clearance [3, 13]: 1.05 mL/min/kg
derived serum clearance rate across doses [3, 14]: remained constant
dose proportionality of plasma PK [3, 14]: clear dose proportionality
